Values after ≈ are worked out from the molar mass of the structure shown. Read-outs that look alike come from different tables or passages of the source.
What was measured:
E. coli GC 2236 = test: MIC, broth microdilution; conditions: Escherichia coli
E. coli GC 2235 = test: MIC, broth microdilution; conditions: Escherichia coli
E. coli GC 2233 = test: MIC, broth microdilution; conditions: Escherichia coli
E. coli GC 2270 = test: MIC, broth microdilution; conditions: Escherichia coli
E. coli GC 2271 = test: MIC, broth microdilution; conditions: Escherichia coli
E. coli GC 3226 = test: MIC, broth microdilution; conditions: Escherichia coli
E. coli GC 1073 = test: MIC, broth microdilution; conditions: Escherichia coli
Procedure: Antimicrobial susceptibility testing. The in vitro activities of the antibiotics are determined by the broth microdilution method as recommended by the National Committee for Clinical Laboratory Standards (NCCLS) (1). Mueller-Hinton II broth (MHBII)(BBL Cockeysville, Md.) is the medium employed in the testing procedures. Microtiter plates containing serial dilutions of each antimicrobial agent are inoculated with each organism to yield the appropriate density (10^5 CFU/ml) in a 100 μl final volume. The plates are incubated for 18-22 hours at 35° C. in ambient air.
Representative compounds were first incubated in mouse serum for an hour prior to the in vitro testing against a panel of selected gram-positive and gram-negative bacteria strains. All compounds were also pre-incubated in water for an hour prior to testing as control. Representative compounds of Formula I were incubated in human serum prior to MIC determination.

S. typhimurium GC 2172 = test: MIC, broth microdilution; conditions: Salmonella enterica, TYPHIMURIUM
S. aureus GC 1079 = test: MIC, broth microdilution; conditions: Staphylococcus aureus
S. aureus GC 6335 = test: MIC, broth microdilution; conditions: Staphylococcus aureus
S. aureus GC 6469 = test: MIC, broth microdilution; conditions: Staphylococcus aureus
E. faecalis GC 4555 = test: MIC, broth microdilution; conditions: Enterococcus faecalis
E. faecalis GC 2265 = test: MIC, broth microdilution; conditions: Enterococcus faecalis
E. faecium GC 4556 = test: MIC, broth microdilution; conditions: Enterococcus faecium
E. faecium GC 2243 = test: MIC, broth microdilution; conditions: Enterococcus faecium
S. pyogenes GC 4563 = test: MIC, broth microdilution; conditions: Streptococcus pyogenes
S. agalactiae GC 4564 = test: MIC, broth microdilution; conditions: Streptococcus agalactiae
c. albicans GC 3066 = test: MIC, broth microdilution
E. coli = test: Range of MIC for E. coli strains; conditions: Escherichia coli
Staph. = test: Range of MIC for Staph. strains, including MRSA; conditions: Staphylococcus aureus, MRSA

Question: How did the MIC (E. coli GC 2236; GC2236, read-out: MINIMAL INHIBITORY CONCENTRATION MIC, pre-incubated in Mouse Serum) turn out when `CCCCN(CC(=O)Nc1cc(N(C)C)c2c(c1O)C(=O)C1=C(O)[C@]3(O)C(=O)C(C(N)=O)=C(O)[C@@H](N(C)C)[C@@H]3C[C@@H]1C2)C(=O)OCOC(=O)c1cccs1` [Example 23, ({[(2-{[(5aR,6aS,7S,10aS)-9-(aminocarbonyl)-4,7-bis(dimethylamino)-1,8,10a,11-tetrahydroxy-10,12-dioxo-5,5a,6,6a,7,10,10a,12-octahydrotetracen-2-yl]amino}-2-oxoethyl)(butyl)amino]carbonyl}oxy)methyl thiophene-2-carboxylate] was run?
Answer: 2 µg/mL (≈ 2.6 µM)

Question: What about the MIC (E. coli GC 2236; GC2236, read-out: MINIMAL INHIBITORY CONCENTRATION MIC, pre-incubated in Water) of the same compound?
Answer: > 64 µg/mL

Question: What about the MIC (E. coli GC 2235; GC2235, read-out: MINIMAL INHIBITORY CONCENTRATION MIC, pre-incubated in Mouse Serum) of the same compound?
Answer: 1 µg/mL (≈ 1.3 µM)

Question: And the MIC (E. coli GC 2235; GC2235, read-out: MINIMAL INHIBITORY CONCENTRATION MIC, pre-incubated in Water)?
Answer: > 64 µg/mL

Question: What about the MIC (E. coli GC 2233; GC2233, read-out: MINIMAL INHIBITORY CONCENTRATION MIC, pre-incubated in Mouse Serum) of the same compound?
Answer: 2 µg/mL (≈ 2.6 µM)

Question: And the MIC (E. coli GC 2233; GC2233, read-out: MINIMAL INHIBITORY CONCENTRATION MIC, pre-incubated in Water)?
Answer: > 64 µg/mL

Question: And the MIC (E. coli GC 2270; GC2270, read-out: MINIMAL INHIBITORY CONCENTRATION MIC, pre-incubated in Mouse Serum)?
Answer: 1 µg/mL (≈ 1.3 µM)

Question: What about the MIC (E. coli GC 2270; GC2270, read-out: MINIMAL INHIBITORY CONCENTRATION MIC, pre-incubated in Water) of the same compound?
Answer: > 64 µg/mL

Question: And the MIC (E. coli GC 2271; GC2271, read-out: MINIMAL INHIBITORY CONCENTRATION MIC, pre-incubated in Mouse Serum)?
Answer: 1 µg/mL (≈ 1.3 µM)

Question: What about the MIC (E. coli GC 2271; GC2271, read-out: MINIMAL INHIBITORY CONCENTRATION MIC, pre-incubated in Water) of the same compound?
Answer: > 64 µg/mL

Question: And the MIC (E. coli GC 3226; GC3226, read-out: MINIMAL INHIBITORY CONCENTRATION MIC, pre-incubated in Mouse Serum)?
Answer: 8 µg/mL (≈ 10.4 µM)

Question: What about the MIC (E. coli GC 3226; GC3226, read-out: MINIMAL INHIBITORY CONCENTRATION MIC, pre-incubated in Water) of the same compound?
Answer: > 64 µg/mL

Question: What about the MIC (E. coli GC 1073; GC1073, read-out: MINIMAL INHIBITORY CONCENTRATION MIC, pre-incubated in Mouse Serum) of the same compound?
Answer: 1 µg/mL (≈ 1.3 µM)

Question: And the MIC (E. coli GC 1073; GC1073, read-out: MINIMAL INHIBITORY CONCENTRATION MIC, pre-incubated in Water)?
Answer: > 64 µg/mL

Question: And the MIC (S. typhimurium GC 2172; read-out: MINIMAL INHIBITORY CONCENTRATION MIC, pre-incubated in Mouse Serum)?
Answer: 4 µg/mL (≈ 5.2 µM)

Question: What about the MIC (S. typhimurium GC 2172; read-out: MINIMAL INHIBITORY CONCENTRATION MIC, pre-incubated in Water) of the same compound?
Answer: > 64 µg/mL

Question: What about the MIC (S. aureus GC 1079; GC1079, read-out: MINIMAL INHIBITORY CONCENTRATION MIC, pre-incubated in Mouse Serum) of the same compound?
Answer: 2 µg/mL (≈ 2.6 µM)

Question: And the MIC (S. aureus GC 1079; GC1079, read-out: MINIMAL INHIBITORY CONCENTRATION MIC, pre-incubated in Water)?
Answer: 4 µg/mL (≈ 5.2 µM)

Question: And the MIC (S. aureus GC 6335; GC6335, read-out: MINIMAL INHIBITORY CONCENTRATION MIC, pre-incubated in Mouse Serum)?
Answer: 2 µg/mL (≈ 2.6 µM)

Question: And the MIC (S. aureus GC 6335; GC6335, read-out: MINIMAL INHIBITORY CONCENTRATION MIC, pre-incubated in Water)?
Answer: 4 µg/mL (≈ 5.2 µM)

Question: And the MIC (S. aureus GC 6469; GC6469, read-out: MINIMAL INHIBITORY CONCENTRATION MIC, pre-incubated in Mouse Serum)?
Answer: 4 µg/mL (≈ 5.2 µM)

Question: What about the MIC (S. aureus GC 6469; GC6469, read-out: MINIMAL INHIBITORY CONCENTRATION MIC, pre-incubated in Water) of the same compound?
Answer: 4 µg/mL (≈ 5.2 µM)

Question: What about the MIC (E. faecalis GC 4555; GC4555, read-out: MINIMAL INHIBITORY CONCENTRATION MIC, pre-incubated in Mouse Serum) of the same compound?
Answer: 1 µg/mL (≈ 1.3 µM)

Question: What about the MIC (E. faecalis GC 4555; GC4555, read-out: MINIMAL INHIBITORY CONCENTRATION MIC, pre-incubated in Water) of the same compound?
Answer: 4 µg/mL (≈ 5.2 µM)

Question: What about the MIC (E. faecalis GC 2265; GC2265, read-out: MINIMAL INHIBITORY CONCENTRATION MIC, pre-incubated in Mouse Serum) of the same compound?
Answer: 1 µg/mL (≈ 1.3 µM)

Question: And the MIC (E. faecalis GC 2265; GC2265, read-out: MINIMAL INHIBITORY CONCENTRATION MIC, pre-incubated in Water)?
Answer: 4 µg/mL (≈ 5.2 µM)

Question: What about the MIC (E. faecium GC 4556; GC4556, read-out: MINIMAL INHIBITORY CONCENTRATION MIC, pre-incubated in Mouse Serum) of the same compound?
Answer: 2 µg/mL (≈ 2.6 µM)

Question: And the MIC (E. faecium GC 4556; GC4556, read-out: MINIMAL INHIBITORY CONCENTRATION MIC, pre-incubated in Water)?
Answer: 4 µg/mL (≈ 5.2 µM)

Question: What about the MIC (E. faecium GC 2243; GC2243, read-out: MINIMAL INHIBITORY CONCENTRATION MIC, pre-incubated in Mouse Serum) of the same compound?
Answer: 0.5 µg/mL (≈ 0.649 µM)

Question: And the MIC (E. faecium GC 2243; GC2243, read-out: MINIMAL INHIBITORY CONCENTRATION MIC, pre-incubated in Water)?
Answer: 4 µg/mL (≈ 5.2 µM)

Question: What about the MIC (S. pyogenes GC 4563; GC4563, read-out: MINIMAL INHIBITORY CONCENTRATION MIC, pre-incubated in Mouse Serum) of the same compound?
Answer: 0.12 µg/mL (≈ 0.156 µM)

Question: What about the MIC (S. pyogenes GC 4563; GC4563, read-out: MINIMAL INHIBITORY CONCENTRATION MIC, pre-incubated in Water) of the same compound?
Answer: 0.25 µg/mL (≈ 0.325 µM)

Question: And the MIC (S. agalactiae GC 4564; GC4564, read-out: MINIMAL INHIBITORY CONCENTRATION MIC, pre-incubated in Mouse Serum)?
Answer: 0.25 µg/mL (≈ 0.325 µM)

Question: And the MIC (S. agalactiae GC 4564; GC4564, read-out: MINIMAL INHIBITORY CONCENTRATION MIC, pre-incubated in Water)?
Answer: 0.25 µg/mL (≈ 0.325 µM)

Question: And the MIC (c. albicans GC 3066; Candida albicans, GC3066, read-out: MINIMAL INHIBITORY CONCENTRATION MIC)?
Answer: > 64 µg/mL

Question: And the “MINIMAL INHIBITORY CONCENTRATION MIC” value (c. albicans GC 3066; pre-incubated in Water)?
Answer: >64 UG/ML

Question: And the MIC (E. coli; 20 h, read-out: Range of MIC, E. coli (Mouse Serum))?
Answer: 1 to 8 µg/mL (≈ 1.3 to 10.4 µM)

Question: And the MIC (E. coli; read-out: Minimum inhibitory concentration (MIC), E. coli (mouse serum))?
Answer: 1 to 8 µg/mL (≈ 1.3 to 10.4 µM)

Question: What about the MIC (E. coli; read-out: Minimum inhibitory concentration (MIC), E. coli (water)) of the same compound?
Answer: > 64 µg/mL

Question: What about the MIC (E. coli; read-out: Range of MIC, E. coli (Water)) of the same compound?
Answer: > 64 µg/mL

Question: What about the MIC (Staph.; read-out: Minimum inhibitory concentration (MIC), Staph. (mouse serum)) of the same compound?
Answer: 0.25 to 4 µg/mL (≈ 0.325 to 5.2 µM)

Question: And the MIC (Staph.; read-out: Minimum inhibitory concentration (MIC), Staph. (water))?
Answer: 0.5 to 8 µg/mL (≈ 0.649 to 10.4 µM)

Question: What about the MIC (Staph.; read-out: Range of MIC, Staph (Mouse Serum)) of the same compound?
Answer: 0.25 to 4 µg/mL (≈ 0.325 to 5.2 µM)

Question: What about the MIC (Staph.; read-out: Range of MIC, Staph (Water)) of the same compound?
Answer: 0.5 to 8 µg/mL (≈ 0.649 to 10.4 µM)
